Experimental findings from patent US11013724B2, “Glutaminase inhibitors” (University of Pittsburgh—Of the Commonwealth System of …, priority 2014, dated 2021) are described below.

In one assay the test system is MDA-MB 231 cancer cells. Description: MDA-MB-231 cell proliferation assay (cell counting on 6th day). The assay is classed as cell-based. To be noted: relative to prior art compound BPTES. The procedure: (§1) Cell culture media and serum were obtained from Invitrogen (Carlsbad, Calif.). All other reagents were obtained from Fisher Scientific (Pittsburgh, Pa.) or Sigma Aldrich (St. Louis, Mo.). MDA-MB-231 cells were purchased from ATCC (Manassas, Va.), and were cultured at 35° C., in 5% CO2, using RPMI-1640 media supplemented with 10% FBS, unless otherwise specified. Recombinant GAC was expressed in E. coli and purified. Briefly, human GAC (residues 72-603) was cloned into the pET28a vector from Novagen, and was expressed as a His6-tagged fusion protein in E. coli. It was then purified by ion exchange and size exclusion chromatography.
Cell assays: MDA-MB-231 cells were cultured in RPMI-1640 media supplemented with 10% FBS. Prior to initiating the assay, cells that were 70-80% confluent were trypsinized. These cells were diluted, counted, and dispensed into 12-well culture plates at a density of 2×10^4 cells per well. Each well was then brought to 1 mL of media, total. The cells were allowed to adhere to the wells overnight, at which point they were recounted (day 0 of the assay). […] Cells were counted on the 6th day of culture. […] Cells were then counted on a hemocytometer, with 3 readings taken and averaged per sample. […] Dose curves and IC50 values were determined in Sigmaplot, using the built-in four parameter logistic function.

For assay [1], the target named is recombinant GAC (human GAC, residues 72-603). Description: GAC enzyme assay (biochemical assay, glutamate dehydrogenase-coupled, absorbance at 340 nm). To be noted: relative to prior art compound BPTES. The procedure: as §1
Biochemical assays: The GAC inhibitors were solvated in DMSO. Assay vessels were charged with 1 μL of inhibitor in order to effect the reported final concentration. To each vessel was added 95 μL of an aqueous solution containing 48 mM Tris-acetate (pH 8.6), 21 mM glutamine, and 50 nM recombinant GAC. Fifteen μL of either water or 1 M potassium phosphate, pH 8.2, were added to the mixture to begin the reaction. […] The absorbance of both the second and third reactions was recorded at […]. The third reaction was treated as a baseline, and its absorbance was subtracted from that of the second reaction prior to further data analysis. […] Dose curves and IC50 values were determined in Sigmaplot, using the built-in four parameter logistic function.

Regarding `O=C(Cc1ccccc1)Nc1nnc(OC2CCN(c3nnc(NC(=O)Cc4ccccc4)s3)CC2)s1` [UPGL00019, 2-Phenyl-N-{5-[1-(5-phenylacetylamino-[1,3,4]thiadiazol-2-yl)-piperidin-4-yloxy]-[1,3,4]thiadiazol-2-yl}-acetamide], the “IC50 in inhibiting the proliferation of MDA-MB 231 cancer cells in vitro compared to BPTES” value in the assay with MDA-MB 231 cancer cells is reported as “better than BPTES by 2 orders of magnitude”. For the same compound, the “IC50 in the GAC enzyme assay compared directly to BPTES” value in assay [1] is “one order of magnitude better”.
